According to the CheMixHub viscosity set:

Assay: xn = mol fraction of the nth substance listed

COc1ccccc1N + CCCC(=O)O
viscosity [mPa·s], 100 kPa
Settings | x1 = 0.1187 | x1 = 0.1967 | x1 = 0.2806 | x1 = 0.3708 | x1 = 0.5026 | x1 = 0.6111 | x1 = 0.6888 | x1 = 0.7711 | x1 = 0.9041
303.15 K | 1.813 | 2.094 | 2.394 | 2.716 | 3.184 | 3.567 | 3.839 | 4.126 | 4.589
308.15 K | 1.646 | 1.911 | 2.194 | 2.497 | 2.937 | 3.298 | 3.554 | 3.824 | 4.259
313.15 K | 1.478 | 1.726 | 1.992 | 2.276 | 2.689 | 3.027 | 3.266 | 3.519 | 3.926
318.15 K | 1.313 | 1.547 | 1.796 | 2.063 | 2.451 | 2.768 | 2.992 | 3.229 | 3.611

COCCOC + c1ccccc1
298.15 K, 101 kPa
Settings | viscosity [mPa·s]
x1 = 0.0878 | 0.571
x1 = 0.1781 | 0.545
x1 = 0.2708 | 0.524
x1 = 0.3662 | 0.504
x1 = 0.4643 | 0.484
x1 = 0.5652 | 0.467
x1 = 0.6691 | 0.45
x1 = 0.7761 | 0.435
x1 = 0.8864 | 0.42

CC(N)C(=O)[O-].CCCCn1cc[n+](C)c1 + O
Settings | viscosity [mPa·s]
318.15 K, 100.3 kPa, x1 = 0.01781 | 1.114

C1CCCCC1 + CCCCCCCCCC
Settings | viscosity [mPa·s]
298.15 K, 101 kPa, x2 = 0.1357 | 0.8838
298.15 K, 101 kPa, x2 = 0.1638 | 0.8739
298.15 K, 101 kPa, x2 = 0.1909 | 0.8684
298.15 K, 101 kPa, x2 = 0.2292 | 0.8595
298.15 K, 101 kPa, x2 = 0.2677 | 0.8527
298.15 K, 101 kPa, x2 = 0.2769 | 0.8484
298.15 K, 101 kPa, x2 = 0.316 | 0.8438
298.15 K, 101 kPa, x2 = 0.3563 | 0.8348
298.15 K, 101.33 kPa, x1 = 0.1037 | 0.836
298.15 K, 101.33 kPa, x1 = 0.1316 | 0.8418
298.15 K, 101.33 kPa, x1 = 0.2065 | 0.824
298.15 K, 101.33 kPa, x1 = 0.254 | 0.8386
298.15 K, 101.33 kPa, x1 = 0.3077 | 0.818
298.15 K, 101.33 kPa, x1 = 0.3302 | 0.8292
298.15 K, 101.33 kPa, x1 = 0.4003 | 0.818
298.15 K, 101.33 kPa, x1 = 0.467 | 0.8331
298.15 K, 101.33 kPa, x1 = 0.5005 | 0.818
298.15 K, 101.33 kPa, x1 = 0.5494 | 0.8222
298.15 K, 101.33 kPa, x1 = 0.6 | 0.814
298.15 K, 101.33 kPa, x1 = 0.6289 | 0.8303
298.15 K, 101.33 kPa, x1 = 0.7015 | 0.8247
298.15 K, 101.33 kPa, x1 = 0.7045 | 0.812
298.15 K, 101.33 kPa, x1 = 0.7719 | 0.8409
298.15 K, 101.33 kPa, x1 = 0.802 | 0.819
298.15 K, 101.33 kPa, x1 = 0.8324 | 0.8412
298.15 K, 101.33 kPa, x1 = 0.8857 | 0.8612
298.15 K, 101.33 kPa, x1 = 0.9001 | 0.845
298.15 K, 101.33 kPa, x1 = 0.9309 | 0.8746
298.15 K, 101.33 kPa, x2 = 0.0178 | 0.8968
303.15 K, 101.33 kPa, x1 = 0.1037 | 0.78
303.15 K, 101.33 kPa, x1 = 0.2065 | 0.766
303.15 K, 101.33 kPa, x1 = 0.3077 | 0.761
303.15 K, 101.33 kPa, x1 = 0.4003 | 0.761
303.15 K, 101.33 kPa, x1 = 0.5005 | 0.76
303.15 K, 101.33 kPa, x1 = 0.6 | 0.756
303.15 K, 101.33 kPa, x1 = 0.7045 | 0.754
303.15 K, 101.33 kPa, x1 = 0.802 | 0.759
303.15 K, 101.33 kPa, x1 = 0.9001 | 0.78
308.15 K, 101 kPa, x1 = 0.0439 | 0.7345
308.15 K, 101 kPa, x1 = 0.175 | 0.7272
308.15 K, 101 kPa, x1 = 0.2106 | 0.7254
308.15 K, 101 kPa, x1 = 0.3096 | 0.7164
308.15 K, 101 kPa, x1 = 0.3863 | 0.7147
308.15 K, 101 kPa, x1 = 0.4943 | 0.7122
308.15 K, 101 kPa, x1 = 0.5864 | 0.7133
308.15 K, 101 kPa, x1 = 0.7303 | 0.7189
308.15 K, 101 kPa, x1 = 0.8805 | 0.7325
308.15 K, 101 kPa, x1 = 0.9385 | 0.7399
308.15 K, 101.33 kPa, x1 = 0.1037 | 0.728
308.15 K, 101.33 kPa, x1 = 0.2065 | 0.713
308.15 K, 101.33 kPa, x1 = 0.3077 | 0.708
308.15 K, 101.33 kPa, x1 = 0.4003 | 0.71
308.15 K, 101.33 kPa, x1 = 0.5005 | 0.71
308.15 K, 101.33 kPa, x1 = 0.6 | 0.702
308.15 K, 101.33 kPa, x1 = 0.7045 | 0.699
308.15 K, 101.33 kPa, x1 = 0.802 | 0.703
308.15 K, 101.33 kPa, x1 = 0.9001 | 0.716
313.15 K, 101 kPa, x1 = 0.0439 | 0.6849
313.15 K, 101 kPa, x1 = 0.175 | 0.6717
313.15 K, 101 kPa, x1 = 0.2106 | 0.6706
313.15 K, 101 kPa, x1 = 0.3096 | 0.666
313.15 K, 101 kPa, x1 = 0.3863 | 0.6618
313.15 K, 101 kPa, x1 = 0.4943 | 0.6596
313.15 K, 101 kPa, x1 = 0.5864 | 0.6577
313.15 K, 101 kPa, x1 = 0.7303 | 0.6684
313.15 K, 101 kPa, x1 = 0.8805 | 0.6936
313.15 K, 101 kPa, x1 = 0.9385 | 0.7077

COc1ccccc1N + ClCCCl
viscosity [mPa·s], 100 kPa
Settings | x1 = 0.0875 | x1 = 0.1658 | x1 = 0.2536 | x1 = 0.3656 | x1 = 0.4856 | x1 = 0.5902 | x1 = 0.6816 | x1 = 0.7704 | x1 = 0.8841
303.15 K | 1.101 | 1.438 | 1.814 | 2.291 | 2.797 | 3.235 | 3.613 | 3.98 | 4.448
308.15 K | 1.037 | 1.353 | 1.704 | 2.148 | 2.617 | 3.022 | 3.372 | 3.711 | 4.139
313.15 K | 0.974 | 1.27 | 1.596 | 2.004 | 2.436 | 2.808 | 3.13 | 3.439 | 3.829

COc1ccccc1N + CCCCO
viscosity [mPa·s], 101 kPa
Settings | x1 = 0.1085 | x1 = 0.1811 | x1 = 0.2605 | x1 = 0.3474 | x1 = 0.4771 | x1 = 0.5867 | x1 = 0.6665 | x1 = 0.7526 | x1 = 0.8949
303.15 K | 2.547 | 2.719 | 2.91 | 3.123 | 3.448 | 3.729 | 3.943 | 4.18 | 4.597
308.15 K | 2.267 | 2.431 | 2.611 | 2.813 | 3.12 | 3.388 | 3.59 | 3.815 | 4.205
313.15 K | 2.036 | 2.194 | 2.365 | 2.554 | 2.846 | 3.103 | 3.297 | 3.516 | 3.895
318.15 K | 1.83 | 1.981 | 2.143 | 2.322 | 2.598 | 2.847 | 3.036 | 3.247 | 3.609
